In ChEMBL document CHEMBL3988442, “University of Dundee, Small-Polar-MMV Screening Library” (2021):
Values joined by “and” are separate entries in the source; they are usually repeats but may differ in a detail not shown here. Identical values can stand only once.

Experiments:
[1] = To identify inhibition of the IFN signalling (Jak-Stat) pathway via expression of an eGFP reporter gene under the control of an IFN-stimulated response element (ISRE) containing MxA promoter.; assay type: functional, Homo sapiens
Lysine--tRNA ligase = Lysine--tRNA ligase (Plasmodium falciparum (isolate 3D7), UniProt Q8IDJ8); test: Pf-KRS-1 (Lysyl-RNA Synthetase-1, KRS-1, cytosolic KRS) from Plasmodium falciparum. Inhibitor assay, 384 well plate, luminescence read.; assay type: functional
Chain of Lysine--tRNA ligase (Q8IDJ8 whole entry): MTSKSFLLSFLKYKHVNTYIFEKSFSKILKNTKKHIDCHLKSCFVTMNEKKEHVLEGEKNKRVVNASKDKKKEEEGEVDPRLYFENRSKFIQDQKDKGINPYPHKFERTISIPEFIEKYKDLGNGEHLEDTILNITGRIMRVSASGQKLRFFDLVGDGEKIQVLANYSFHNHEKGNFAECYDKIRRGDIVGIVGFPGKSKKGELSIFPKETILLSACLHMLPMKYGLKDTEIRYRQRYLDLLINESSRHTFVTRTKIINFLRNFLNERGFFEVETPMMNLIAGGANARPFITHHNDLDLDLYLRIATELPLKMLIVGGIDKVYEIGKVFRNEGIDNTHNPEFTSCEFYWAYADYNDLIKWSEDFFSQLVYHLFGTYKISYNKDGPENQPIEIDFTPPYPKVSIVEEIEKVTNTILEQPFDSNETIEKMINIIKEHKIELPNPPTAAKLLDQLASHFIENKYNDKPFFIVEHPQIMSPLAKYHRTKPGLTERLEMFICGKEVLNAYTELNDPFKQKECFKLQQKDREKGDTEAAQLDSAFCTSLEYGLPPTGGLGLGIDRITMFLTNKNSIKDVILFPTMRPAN

[2] = biological target: AMP-activated protein kinase, AMPK; test: AMP-dependent Kinase enzyme assay. An in vitro enzyme assay that detects ADP turnover that is directly proportional to AMPK activity. This uses naive AMPK that is activated during the assay with MK-8722; assay type: functional, Homo sapiens
Histidine--tRNA ligase [3] = biological target: T1, Histidine--tRNA ligase (Trypanosoma cruzi (strain CL Brener), UniProt Q4DA54); test: Trypanosoma cruzi histidyl tRNA synthetase (Tc-HisRS); assay type: functional
T1 sequence (Q4DA54 whole entry): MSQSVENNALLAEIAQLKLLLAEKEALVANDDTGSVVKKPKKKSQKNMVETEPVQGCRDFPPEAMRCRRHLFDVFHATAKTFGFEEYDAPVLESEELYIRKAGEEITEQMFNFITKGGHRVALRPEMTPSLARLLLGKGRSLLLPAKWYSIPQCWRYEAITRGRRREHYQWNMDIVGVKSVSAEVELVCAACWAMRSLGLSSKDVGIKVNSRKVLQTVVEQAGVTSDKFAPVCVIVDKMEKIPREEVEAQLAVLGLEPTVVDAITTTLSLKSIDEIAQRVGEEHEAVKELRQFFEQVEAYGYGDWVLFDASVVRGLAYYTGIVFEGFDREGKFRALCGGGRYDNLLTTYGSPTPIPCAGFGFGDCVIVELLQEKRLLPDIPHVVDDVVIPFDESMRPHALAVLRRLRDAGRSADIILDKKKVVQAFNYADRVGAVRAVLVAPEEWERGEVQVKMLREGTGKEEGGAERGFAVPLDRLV

Histidine--tRNA ligase [4] = biological target: T2, Histidine--tRNA ligase (Leishmania infantum, UniProt A4I591); test: Leishmania infantum Histidine tRNA synthetase (LdHisRS); assay type: functional
T2 sequence (A4I591 whole entry): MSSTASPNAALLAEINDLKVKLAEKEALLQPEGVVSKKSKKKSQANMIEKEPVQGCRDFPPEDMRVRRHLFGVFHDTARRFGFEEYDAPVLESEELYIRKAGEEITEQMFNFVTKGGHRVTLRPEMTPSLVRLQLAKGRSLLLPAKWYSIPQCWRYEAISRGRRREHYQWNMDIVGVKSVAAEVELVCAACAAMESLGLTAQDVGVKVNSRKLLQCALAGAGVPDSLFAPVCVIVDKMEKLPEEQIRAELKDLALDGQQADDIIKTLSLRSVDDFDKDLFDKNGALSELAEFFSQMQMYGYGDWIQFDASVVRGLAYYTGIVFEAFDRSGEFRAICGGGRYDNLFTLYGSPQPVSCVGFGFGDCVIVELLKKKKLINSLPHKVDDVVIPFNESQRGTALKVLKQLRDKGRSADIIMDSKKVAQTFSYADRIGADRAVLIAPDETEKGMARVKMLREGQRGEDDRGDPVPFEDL

Leishmania donovani = test: Leishmania intramacrophage assay; assay type: functional, organism-based
Trypanosoma brucei = test: Trypanosoma brucei 72 hour study; assay type: functional, organism-based
[5] = biological target: T3, Ubiquitin-activating enzyme e1, putative (Leishmania donovani (strain BPK282A1), UniProt E9BSI1); test: Leishmania donovani Ubiquitin Activating Enzyme (LdE1); assay type: functional
T3 sequence (E9BSI1 whole entry): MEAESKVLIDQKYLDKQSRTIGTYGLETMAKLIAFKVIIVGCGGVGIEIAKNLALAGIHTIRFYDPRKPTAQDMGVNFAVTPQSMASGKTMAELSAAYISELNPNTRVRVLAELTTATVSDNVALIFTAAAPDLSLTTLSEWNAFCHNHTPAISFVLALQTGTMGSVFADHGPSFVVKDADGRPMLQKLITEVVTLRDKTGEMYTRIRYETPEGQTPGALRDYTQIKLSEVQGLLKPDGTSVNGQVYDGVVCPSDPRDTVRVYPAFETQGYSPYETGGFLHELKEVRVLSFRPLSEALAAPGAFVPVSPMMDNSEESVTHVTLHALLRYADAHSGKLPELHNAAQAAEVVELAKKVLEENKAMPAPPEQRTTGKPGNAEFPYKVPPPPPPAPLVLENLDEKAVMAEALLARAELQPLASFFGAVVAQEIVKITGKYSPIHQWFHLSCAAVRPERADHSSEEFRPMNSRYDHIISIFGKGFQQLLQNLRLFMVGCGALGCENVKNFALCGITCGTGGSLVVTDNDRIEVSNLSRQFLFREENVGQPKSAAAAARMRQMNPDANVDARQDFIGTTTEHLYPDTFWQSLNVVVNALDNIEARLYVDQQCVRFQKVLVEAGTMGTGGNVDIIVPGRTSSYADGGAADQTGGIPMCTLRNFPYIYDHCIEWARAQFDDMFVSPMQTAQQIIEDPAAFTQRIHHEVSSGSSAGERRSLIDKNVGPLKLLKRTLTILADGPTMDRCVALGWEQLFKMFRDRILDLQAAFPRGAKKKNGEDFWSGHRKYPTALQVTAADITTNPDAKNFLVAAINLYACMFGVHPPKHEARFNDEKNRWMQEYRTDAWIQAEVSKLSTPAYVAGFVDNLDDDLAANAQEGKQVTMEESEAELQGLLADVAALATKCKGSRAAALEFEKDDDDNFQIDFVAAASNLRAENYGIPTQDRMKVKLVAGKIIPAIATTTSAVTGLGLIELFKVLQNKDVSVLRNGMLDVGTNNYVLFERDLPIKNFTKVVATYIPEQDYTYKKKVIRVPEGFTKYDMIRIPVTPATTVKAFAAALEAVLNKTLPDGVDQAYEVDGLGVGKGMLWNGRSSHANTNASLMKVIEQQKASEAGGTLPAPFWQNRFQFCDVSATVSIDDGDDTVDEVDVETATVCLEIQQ

Row | SMILES | pIC50 [1] | also measured
1 | Cc1nc(CCNC(=O)NCc2ccc(N(C)C)nc2)cs1 | < 4.21 | 
2 | CCS(=O)(=O)N1CCc2ccc(NC(=O)Nc3cccc(SC)c3)cc21 | 5.726 [middle of 4 runs] | 
3 | CCS(=O)(=O)N1CCCc2ccc(NC(=O)Cc3ccc(F)cc3)cc21 | 4.555 and 4.597 | 
4 | Cc1ccc(S(=O)(=O)N2C[C@H]3C[C@H](NC(=O)c4ccnn4C)[C@H]3C2)cc1 | 5.601 and 5.47 and 5.597 and 5.592 | 
5 | CC(C)C1CCCN1C(=O)Nc1ccc(=O)n(C)c1 (stereo not given) |  | IC50 (Lysine--tRNA ligase): > 50.1 µM; pIC50 [2]: < 4; IC50 (Histidine--tRNA ligase [3]): 19 µM and 22.3 µM; IC50 (Histidine--tRNA ligase [4]): 1.01 µM and 1.02 µM and 2.81 µM and 2.75 µM
6 | CS(=O)(=O)c1ccc(NC(=O)N2CCc3sccc3C2)cn1 | 4.408 and 4.389 | 
7 | CN(C)c1ccc(CCCNC(=O)Nc2ccc(C#N)cc2)cc1 | 4.654 and 4.645 | 
8 | CCc1nc(CN2CCN(c3ncnc4cc(F)ccc34)CC2)no1 | 5.76 [middle of 4 runs] | 
9 | CC(=O)c1c(F)cccc1N1CCC(Cc2cccnc2)CC1 | 5.268 and 5.138 | 
10 | c1cnn(CC2CN(c3ncnc4ccsc34)CCO2)c1 (stereo not given) | 4.809 and 4.868 | 
11 | Nc1nccc(-c2c[nH]nc2C2CCCCC2)n1 | 4.943 and 4.951 | 
12 | CC(C)(O)C1CCN(C(=O)Nc2nc(-c3ccccc3)ns2)CC1 | 4.605 and 4.639 | 
13 | CC(=O)c1ccc(N2CCCC(CO)(CCOc3ccccc3)C2)nc1 (stereo not given) | 4.524 and 4.702 | 
14 | CC(=O)N1C[C@@H](c2ccsc2)[C@@H]2CN(Cc3cccc(Cl)c3)CC[C@@H]21 | 4.483 and 4.43 | 
15 | Cc1ccc(CC(=O)Nc2cc(C(C)C)n[nH]2)cn1 |  | pIC50 (Leishmania donovani): 4.917; IC50 (Leishmania donovani; Leishmania donovani): 11.7 µM; pIC50 [2]: < 4; pIC50 (Trypanosoma brucei): 4.869 and 4.956; IC50 (Trypanosoma brucei; Trypanosoma brucei, 72 h): 12.7 µM
16 | c1cnn(CC2CCCN2c2ncnc3sccc23)c1 (stereo not given) | 5.137 and 5.086 | 
17 | COC(=O)c1ccc(S(=O)(=O)NCc2cccnc2N(C)C)cc1 | 4.637 and 5.104 | 
18 | O=C(Cc1noc2ccccc12)N1CCCC1c1noc(C2CC2)n1 (stereo not given) | 4.845 and 4.787 | 
19 | CC(C)c1nc2n(n1)CC(NCc1nnc(C(C)C)o1)CC2 (stereo not given) |  | IC50 [5]: > 100 µM; pIC50 [2]: < 4
20 | CC(C)(C)C(=O)N1C[C@H](c2ccsc2)[C@H]2CN(Cc3cccs3)CC[C@H]21.Cl | 4.58 and 4.539 | 
21 | CCc1ccc(CN2C[C@@H]3OCCN(c4ccnc(N(C)C)n4)[C@@H]3C2)o1.O=C(O)C(F)(F)F | 5.071 and 5.204 | 
22 | CN(Cc1ccco1)[C@@H]1CN(C(=O)c2ccnnc2)[C@@H]2CCCO[C@H]12.O=C(O)C(F)(F)F | < 4.21 | 
23 | O=C(O)C(F)(F)F.O=C(c1ncccn1)N1C[C@H]2CCC[C@@]2(COCc2cccnc2)C1 | < 4.21 | 
24 | CC(C)N1Cc2c(C(=O)N3CCOCC3)nn(C)c2C1.O=C(O)C(F)(F)F.O=C(O)C(F)(F)F | < 4.21 | 
25 | O=C(O)C(F)(F)F.O=C(O)C(F)(F)F.O=C(O)C(F)(F)F.c1ccc(CO[C@@H]2CO[C@@]3(CCN(Cc4ccccn4)C3)C2)nc1 | < 4.21 | 

Second part, led by results:

Row | pIC50 [1] | SMILES | also measured
26 | 5 and 4.933 | CC(C)c1nnc2ccc(N3CCC(C(=O)Nc4nccs4)CC3)nn12 | 
27 | 5.287 and 5.465 | COCC1c2c(cnn2CC2CC2)CCN1Cc1ccc(OC)cc1 (stereo not given) | 
28 | 4.396 and 4.538 | Cc1cc(-c2cnc(NCc3cccnc3)nc2C(C)C)on1 | 
29 | 4.816 and 4.848 | Cc1n[nH]cc1CNc1ccc2c(c1)CN(C(=O)OC(C)(C)C)CC2 | 
30 | 4.665 and 4.584 | COc1ccc(-c2nnc(SC(C)C(=O)NC3CC3)[nH]2)c(OC)c1 (stereo not given) | 
31 | < 4.21 | CCn1c(C2CCCN(Cc3nccn3CCOC)C2)nn(C)c1=O (stereo not given) | 
32 | 4.696 and 4.448 | Clc1ccc2cccnc2c1CN1CCCC1Cn1cncn1 (stereo not given) | 
33 | 4.543 and 4.502 | COc1ccc(C)cc1CN1CCCC1c1noc(C2CC2)n1 (stereo not given) | 
34 | 5.12 and 5.038 | Cc1cc(CN2CCCC2c2noc(C3CC3)n2)c2ccccc2n1 (stereo not given) | 
35 | 5.597 and 5.199 | Cc1nc(C)n(CC2CCCN(c3ncnc4sccc34)C2)n1 (stereo not given) | 
36 | 5.177 and 5.243 | Cc1nc(C)n(CC2CCCN(c3ncnc4c3CCC4)C2)n1 (stereo not given) | 
37 | 4.421 and 4.521 | Cc1cc(-c2cnc(N3CCCC(C)C3)nc2-c2cccnc2C)on1.Cl (stereo not given) | 
